Source: ChEMBL document CHEMBL2169878 (J Med Chem, 2012)

What was measured:
Salmonella typhimurium [1] = experiment: Mutagenicity against Salmonella typhimurium TA98 assessed as revertants at 17 uM incubated for 90 mins followed by drug washout measured after 2 days relative to positive control; format: toxicity, organism-based; conditions: salmonella enterica subsp. enterica serovar typhimurium
Plasmodium falciparum [2] = experiment: Antiplasmodial activity against chloroquine-sensitive Plasmodium falciparum D10 infected in human RBC after 72 hrs by parasite lactate dehydrogenase assay; format: functional, organism-based; conditions: D10, 72 h
Salmonella typhimurium [3] = experiment: Mutagenicity against Salmonella typhimurium TA100 assessed as revertants at 66 uM incubated for 90 mins followed by drug washout measured after 2 days relative to positive control; format: toxicity, organism-based; conditions: salmonella enterica subsp. enterica serovar typhimurium
Salmonella typhimurium [4] = experiment: Mutagenicity against Salmonella typhimurium TA100 assessed as revertants at 4 uM incubated for 90 mins followed by drug washout measured after 2 days relative to positive control; format: toxicity, organism-based; conditions: salmonella enterica subsp. enterica serovar typhimurium, 1.5 h
Salmonella typhimurium [5] = experiment: Mutagenicity against Salmonella typhimurium TA100 assessed as revertants at 33 uM incubated for 90 mins followed by drug washout measured after 2 days relative to positive control; format: toxicity, organism-based; conditions: salmonella enterica subsp. enterica serovar typhimurium, 1.5 h
Salmonella typhimurium [6] = experiment: Mutagenicity against Salmonella typhimurium TA98 assessed as revertants at 4 uM incubated for 90 mins followed by drug washout measured after 2 days relative to positive control; format: toxicity, organism-based; conditions: salmonella enterica subsp. enterica serovar typhimurium
Salmonella typhimurium [7] = experiment: Mutagenicity against Salmonella typhimurium TA98 assessed as revertants at 66 uM incubated for 90 mins followed by drug washout measured after 2 days relative to positive control; format: toxicity, organism-based; conditions: salmonella enterica subsp. enterica serovar typhimurium
Plasmodium falciparum [8] = experiment: Antiplasmodial activity against chloroquine-sensitive Plasmodium falciparum NF54 infected in human erythrocytes assessed as inhibition of [3H]hypoxanthine incorporation incubated for 48 hrs prior to [3H]hypoxanthine addition measured after 48 hrs by liquid scintillation counting; format: functional, organism-based
Salmonella typhimurium [9] = experiment: Mutagenicity against Salmonella typhimurium TA98 assessed as revertants at 8 uM incubated for 90 mins followed by drug washout measured after 2 days relative to positive control; format: toxicity, organism-based; conditions: salmonella enterica subsp. enterica serovar typhimurium, 1.5 h
Salmonella typhimurium [10] = experiment: Mutagenicity against Salmonella typhimurium TA98 assessed as revertants at 33 uM incubated for 90 mins followed by drug washout measured after 2 days relative to positive control; format: toxicity, organism-based; conditions: salmonella enterica subsp. enterica serovar typhimurium, 1.5 h
Salmonella typhimurium [11] = experiment: Mutagenicity against Salmonella typhimurium TA100 assessed as revertants at 17 uM incubated for 90 mins followed by drug washout measured after 2 days relative to positive control; format: toxicity, organism-based; conditions: salmonella enterica subsp. enterica serovar typhimurium
Salmonella typhimurium [12] = experiment: Mutagenicity against Salmonella typhimurium TA98 assessed as revertants at 2 uM incubated for 90 mins followed by drug washout measured after 2 days relative to positive control; format: toxicity, organism-based; conditions: salmonella enterica subsp. enterica serovar typhimurium, 1.5 h
[13] = Cytotoxicity against human HepG2 cells after 24 hrs by neutral red dye uptake assay; format: cell-based; conditions: read-out: TC50
[14] = Cytotoxicity against mouse NIH3T3 cells after 24 hrs by neutral red dye uptake assay; format: cell-based; conditions: read-out: TC50
Plasmodium falciparum [15] = experiment: Antiplasmodial activity against chloroquine-resistant Plasmodium falciparum K1 infected in human erythrocytes assessed as inhibition of [3H]hypoxanthine incorporation incubated for 48 hrs prior to [3H]hypoxanthine addition measured after 48 hrs by liquid scintillation counting; format: functional, organism-based
Salmonella typhimurium [16] = experiment: Mutagenicity against Salmonella typhimurium TA100 assessed as revertants at 9 uM incubated for 90 mins followed by drug washout measured after 2 days relative to positive control; format: toxicity, organism-based; conditions: salmonella enterica subsp. enterica serovar typhimurium, 1.5 h
Salmonella typhimurium [17] = experiment: Mutagenicity against Salmonella typhimurium TA100 assessed as revertants at 2 uM incubated for 90 mins followed by drug washout measured after 2 days relative to positive control; format: toxicity, organism-based; conditions: salmonella enterica subsp. enterica serovar typhimurium
Plasmodium falciparum [18] = experiment: Antiplasmodial activity against chloroquine-resistant Plasmodium falciparum W2 infected in human RBC after 72 hrs by parasite lactate dehydrogenase assay; format: functional, organism-based; conditions: W2, 72 h
Salmonella typhimurium [19] = experiment: Mutagenicity against Salmonella typhimurium TA100 assessed as revertants at 1 uM incubated for 90 mins followed by drug washout measured after 2 days relative to positive control; format: toxicity, organism-based; conditions: salmonella enterica subsp. enterica serovar typhimurium, 1.5 h
Salmonella typhimurium [20] = experiment: Mutagenicity against Salmonella typhimurium TA100 assessed as revertants at 32 uM incubated for 90 mins followed by drug washout measured after 2 days relative to positive control; format: toxicity, organism-based; conditions: salmonella enterica subsp. enterica serovar typhimurium
Salmonella typhimurium [21] = experiment: Mutagenicity against Salmonella typhimurium TA98 assessed as revertants at 16 uM incubated for 90 mins followed by drug washout measured after 2 days relative to positive control; format: toxicity, organism-based; conditions: salmonella enterica subsp. enterica serovar typhimurium
Salmonella typhimurium [22] = experiment: Mutagenicity against Salmonella typhimurium TA98 assessed as revertants at 1 uM incubated for 90 mins followed by drug washout measured after 2 days relative to positive control; format: toxicity, organism-based; conditions: salmonella enterica subsp. enterica serovar typhimurium
Salmonella typhimurium [23] = experiment: Mutagenicity against Salmonella typhimurium TA100 assessed as revertants at 16 uM incubated for 90 mins followed by drug washout measured after 2 days relative to positive control; format: toxicity, organism-based; conditions: salmonella enterica subsp. enterica serovar typhimurium
Plasmodium falciparum [24] = experiment: Resistance ratio of IC50 for chloroquine-resistant Plasmodium falciparum K1 to IC50 for chloroquine-sensitive Plasmodium falciparum NF54; format: functional
Salmonella typhimurium [25] = experiment: Mutagenicity against Salmonella typhimurium TA98 assessed as revertants at 32 uM incubated for 90 mins followed by drug washout measured after 2 days relative to positive control; format: toxicity, organism-based; conditions: salmonella enterica subsp. enterica serovar typhimurium, 1.5 h
Plasmodium falciparum [26] = experiment: Resistance ratio of IC50 for chloroquine-resistant Plasmodium falciparum W2 to IC50 for chloroquine-sensitive Plasmodium falciparum D10; format: functional
[27] = target: T1, Chloroquine resistance transporter (Plasmodium falciparum) (UniProt Q9N623); experiment: Inhibition of chloroquine-resistant Plasmodium falciparum Dd2 CRT expressed in Xenopus laevis oocyte assessed as inhibition of [3H]chloroquine uptake at 100 uM measured from 1 to 2 hrs
T1 sequence (whole entry): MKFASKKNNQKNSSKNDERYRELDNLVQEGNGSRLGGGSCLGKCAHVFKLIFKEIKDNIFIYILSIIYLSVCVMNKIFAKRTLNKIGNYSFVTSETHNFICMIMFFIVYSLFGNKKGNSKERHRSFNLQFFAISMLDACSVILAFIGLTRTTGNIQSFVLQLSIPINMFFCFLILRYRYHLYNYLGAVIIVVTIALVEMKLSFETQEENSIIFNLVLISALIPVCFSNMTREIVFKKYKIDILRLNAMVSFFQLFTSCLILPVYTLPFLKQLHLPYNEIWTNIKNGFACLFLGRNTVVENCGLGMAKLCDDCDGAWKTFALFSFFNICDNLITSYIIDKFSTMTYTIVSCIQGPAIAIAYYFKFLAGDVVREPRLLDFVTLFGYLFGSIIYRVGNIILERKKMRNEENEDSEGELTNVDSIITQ

Question: Which Activity (Salmonella typhimurium [1]) does the source give for `Fc1cc(C(Nc2ccnc3cc(C(F)(F)F)ccc23)c2ccc(Cl)cc2)ccc1CN1CCCC1` (racemic) here?
Answer: 4%

Question: What about the IC50 (Plasmodium falciparum [2]) of the same compound?
Answer: 0.051 µM

Question: What about the Activity (Salmonella typhimurium [3]) of the same compound?
Answer: 1%

Question: What about the Activity (Salmonella typhimurium [4]) of the same compound?
Answer: 3%

Question: And the Activity (Salmonella typhimurium [5])?
Answer: 8%

Question: And the Activity (Salmonella typhimurium [6])?
Answer: 1%

Question: What about the Activity (Salmonella typhimurium [7]) of the same compound?
Answer: 8%

Question: What about the IC50 (Plasmodium falciparum [8]) of the same compound?
Answer: 0.02 µM

Question: And the Activity (Salmonella typhimurium [9])?
Answer: 1%

Question: And the Activity (Salmonella typhimurium [10])?
Answer: 4%

Question: What about the Activity (Salmonella typhimurium [11]) of the same compound?
Answer: 4%

Question: And the Activity (Salmonella typhimurium [12])?
Answer: 1%

Question: And the CC50 at 24 h [13]?
Answer: 19 µM

Question: What about the CC50 at 24 h [14] of the same compound?
Answer: 34 µM

Question: And the IC50 (Plasmodium falciparum [15])?
Answer: 0.033 µM

Question: What about the Activity (Salmonella typhimurium [16]) of the same compound?
Answer: 1%

Question: And the Activity (Salmonella typhimurium [17])?
Answer: 4%

Question: And the IC50 (Plasmodium falciparum [18])?
Answer: 0.076 µM

Question: Which Activity (Salmonella typhimurium [19]) does the source give for `Clc1cccc(C(Nc2ccnc3cc(Cl)ccc23)c2ccc(CN3CCCC3)cc2)c1` (racemic) here?
Answer: 5%

Question: And the Activity (Salmonella typhimurium [20])?
Answer: 2%

Question: And the Activity (Salmonella typhimurium [21])?
Answer: 14%

Question: And the Activity (Salmonella typhimurium [4])?
Answer: 0%

Question: What about the Activity (Salmonella typhimurium [22]) of the same compound?
Answer: 2%

Question: And the Activity (Salmonella typhimurium [6])?
Answer: 0%

Question: And the Activity (Salmonella typhimurium [9])?
Answer: 6%

Question: And the Activity (Salmonella typhimurium [23])?
Answer: 10%

Question: What about the Activity (Salmonella typhimurium [12]) of the same compound?
Answer: 2%

Question: What about the CC50 at 24 h [13] of the same compound?
Answer: 31 µM

Question: What about the CC50 at 24 h [14] of the same compound?
Answer: 9 µM

Question: And the “Ratio IC50” value (Plasmodium falciparum [24])?
Answer: 1.3

Question: And the Activity (Salmonella typhimurium [16])?
Answer: 5%

Question: And the Activity (Salmonella typhimurium [17])?
Answer: 2%

Question: And the Activity (Salmonella typhimurium [25])?
Answer: 2%

Question: And the “Ratio IC50” value (Plasmodium falciparum [26])?
Answer: 1

Question: And the inhibition [27]?
Answer: 70%
